The target in one test is Trypsin (Sus scrofa, UniProt P00761). In words: trypsin protease activity blockade – biochemical, quenched peptide fluorescence, cherry-pick, selectivity assay for Rce1 protease inhibitor project, dose response (AID 488789).
The target in the next test is Bcl-2-like protein 10 (Homo sapiens, UniProt Q9HD36). In words: Bcl-B/TR3 peptide binding disruption – biochemical, fluorescence polarization, FITC-TR3 peptide, selectivity assay for Bfl-1 inhibitor project, primary screen (AID 748). On the technique in general: Fluorescence polarisation rises when a labelled molecule tumbles more slowly, as on binding a larger partner.
Chain of Bcl-2-like protein 10 (Q9HD36 whole entry): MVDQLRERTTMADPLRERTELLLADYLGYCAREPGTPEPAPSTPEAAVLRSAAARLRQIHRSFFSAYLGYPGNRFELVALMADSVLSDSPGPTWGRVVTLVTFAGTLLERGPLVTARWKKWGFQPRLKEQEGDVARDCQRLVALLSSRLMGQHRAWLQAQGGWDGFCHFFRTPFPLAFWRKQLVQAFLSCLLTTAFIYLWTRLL

A further test deals with MDA-MB-435. In words: cells. The format is functional, cell-based. The settings on record: Homo sapiens.
Another test can be described thus: cells. The conditions noted are these: PPC-1. The format is functional, cell-based.
Test [1] concerns the target NACHT, LRR and PYD domains-containing protein 3 (Homo sapiens, UniProt Q96P20). In words: NALP3 inhibitors in yeast, dose response, luminescent (AID 488799). The format is functional.
Test [2] has as its target T1, SUMO-activating enzyme (Homo sapiens, UniProt Q9UBT2). Nature of the test: blockers of UBC9-mediated SUMO conjugation – biochemical, AlphaScreen, SUMOylation inhibitor project, confirmation (AID 2018). The format is functional.
Test [3] concerns the target T1, SUMO-activating enzyme. Nature of the test: blockers of SAE1/SAE2–UBC9 SUMO transfer – biochemical, HTRF, uHTS, primary screen (AID 2006). The format is protein-complex assay. For orientation: TR-FRET usually uses a lanthanide donor and a delayed reading to cut background.
Test [4] can be described thus: viability of PTEN-deleted HCT116 cells – cell-based, HCT116 PTEN knockout, dose response (AID 1047).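 Further: HCT116 colon tumor cells with PTEN knocked out; cells exposed to compound for 60 hours before readout; potency for loss of cell viability measured by luminescence.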 The format is functional.
The nature of test [5]: viability of HCT116 lacking mutant beta-catenin – cell-based, human colon tumor, dose response (AID 1045).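 Further: HCT116 colon tumor cells with beta catenin knocked out; cells exposed to compound for 60 hours.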 Type of test: functional.

Activity calls are given as the source filed them.

T1 sequence (Q9UBE0 whole entry): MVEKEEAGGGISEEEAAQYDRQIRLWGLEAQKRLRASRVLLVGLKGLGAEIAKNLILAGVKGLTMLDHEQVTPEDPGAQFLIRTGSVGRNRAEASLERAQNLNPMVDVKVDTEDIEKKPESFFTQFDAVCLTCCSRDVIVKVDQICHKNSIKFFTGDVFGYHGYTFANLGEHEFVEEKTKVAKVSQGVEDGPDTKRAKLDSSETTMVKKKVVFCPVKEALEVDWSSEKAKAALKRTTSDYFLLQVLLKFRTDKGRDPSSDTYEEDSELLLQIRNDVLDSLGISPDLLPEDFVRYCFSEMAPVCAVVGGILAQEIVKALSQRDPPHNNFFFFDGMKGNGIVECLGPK
T1 sequence (Q9UBT2 whole entry): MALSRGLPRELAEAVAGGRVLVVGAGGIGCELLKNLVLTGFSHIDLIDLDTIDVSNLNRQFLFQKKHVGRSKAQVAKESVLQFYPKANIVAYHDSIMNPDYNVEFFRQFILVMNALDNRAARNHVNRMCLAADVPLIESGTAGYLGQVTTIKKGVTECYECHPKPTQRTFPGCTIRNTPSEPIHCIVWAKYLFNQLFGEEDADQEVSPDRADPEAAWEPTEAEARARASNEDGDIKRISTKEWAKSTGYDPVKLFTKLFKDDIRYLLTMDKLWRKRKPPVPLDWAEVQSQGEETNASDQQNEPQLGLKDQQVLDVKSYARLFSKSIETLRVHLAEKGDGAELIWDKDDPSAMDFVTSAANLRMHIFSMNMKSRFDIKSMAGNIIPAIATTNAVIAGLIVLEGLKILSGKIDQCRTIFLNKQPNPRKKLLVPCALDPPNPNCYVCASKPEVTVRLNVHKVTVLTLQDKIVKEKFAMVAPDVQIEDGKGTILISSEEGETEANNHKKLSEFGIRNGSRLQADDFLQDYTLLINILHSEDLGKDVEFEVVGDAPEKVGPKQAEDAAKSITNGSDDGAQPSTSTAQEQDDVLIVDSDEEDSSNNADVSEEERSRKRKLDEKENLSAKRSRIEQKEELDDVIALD
Chain of NACHT, LRR and PYD domains-containing protein 3 (Q96P20 whole entry, the tested form may be a part): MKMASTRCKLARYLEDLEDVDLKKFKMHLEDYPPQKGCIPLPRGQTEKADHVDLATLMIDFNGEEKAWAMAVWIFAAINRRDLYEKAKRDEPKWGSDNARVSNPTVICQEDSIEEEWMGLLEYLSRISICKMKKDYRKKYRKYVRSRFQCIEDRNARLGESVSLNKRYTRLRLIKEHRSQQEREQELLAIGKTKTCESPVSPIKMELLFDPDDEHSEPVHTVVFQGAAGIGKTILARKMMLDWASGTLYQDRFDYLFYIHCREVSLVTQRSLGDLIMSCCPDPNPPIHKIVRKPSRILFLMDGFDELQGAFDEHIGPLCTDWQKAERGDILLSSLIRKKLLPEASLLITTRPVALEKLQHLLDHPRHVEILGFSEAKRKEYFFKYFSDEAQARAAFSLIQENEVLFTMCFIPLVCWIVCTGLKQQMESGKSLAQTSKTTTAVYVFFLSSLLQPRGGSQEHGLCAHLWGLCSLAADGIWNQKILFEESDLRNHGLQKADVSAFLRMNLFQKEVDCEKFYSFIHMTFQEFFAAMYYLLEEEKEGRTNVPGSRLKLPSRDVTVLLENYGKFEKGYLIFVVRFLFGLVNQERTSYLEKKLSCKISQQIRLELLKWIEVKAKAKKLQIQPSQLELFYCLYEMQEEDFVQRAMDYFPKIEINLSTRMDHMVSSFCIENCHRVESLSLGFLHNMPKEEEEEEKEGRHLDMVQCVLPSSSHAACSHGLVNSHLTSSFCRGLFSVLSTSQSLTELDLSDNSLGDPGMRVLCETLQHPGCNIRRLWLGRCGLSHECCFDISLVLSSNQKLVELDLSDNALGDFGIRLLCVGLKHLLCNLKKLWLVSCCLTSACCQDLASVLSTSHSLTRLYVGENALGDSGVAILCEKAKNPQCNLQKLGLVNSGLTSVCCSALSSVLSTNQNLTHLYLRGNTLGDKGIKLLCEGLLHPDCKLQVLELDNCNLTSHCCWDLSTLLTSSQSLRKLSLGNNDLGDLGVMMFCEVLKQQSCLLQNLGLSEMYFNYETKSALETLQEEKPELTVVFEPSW
Chain of Trypsin (P00761 whole entry): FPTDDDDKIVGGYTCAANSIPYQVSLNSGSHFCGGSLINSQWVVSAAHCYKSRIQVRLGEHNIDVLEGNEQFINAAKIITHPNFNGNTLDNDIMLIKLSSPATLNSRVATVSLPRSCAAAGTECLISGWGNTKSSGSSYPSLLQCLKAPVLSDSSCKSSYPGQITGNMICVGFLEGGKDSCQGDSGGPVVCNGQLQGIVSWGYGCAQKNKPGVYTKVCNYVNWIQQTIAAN

As for `CSC[C@H](NC(=O)COc1cc2c(c3oc(=O)cc(C)c13)CCC(C)(C)O2)C(=O)O`, at Trypsin, the AC50 (as a rule, the concentration at which the activity in the assay is half-maximal) was 12 µM (active).
For `c1ccc(-c2nn3c(Cn4nnc5ccccc54)nnc3s2)nc1`, the IC50 (commonly the concentration needed to halve the response being measured) on Bcl-2-like protein 10 was 34.6 µM (active).
`CCSc1cc(N2CCCC2)nc(-c2ccc(Cl)cc2)n1`: the IC50 in the test with MDA-MB-435 and in “cells” was > 10 µM (inactive) each time.
As to `O=C(Nc1scc(-c2ccccc2)c1C(=O)O)c1ccc(F)cc1`, the 50% inhibitory concentration (IC50) in [1] is 10.3 µM (active).
As to `O=C(/C=C/c1ccco1)NC(=S)Nc1cc(-c2nc3ccccc3s2)ccc1Cl`, the concentration for half-maximal inhibition (IC50) was 7.42 µM (active) at SUMO-activating enzyme [2] and 26 µM (active) at SUMO-activating enzyme [3]. Besides, the EC50 – broadly, the concentration at which the effect is half-maximal – in test [4] was 7.86 µM (active); in test [5], 7.24 µM (active).

Source of the values: ChEMBL document CHEMBL1201862, “PubChem BioAssay data set” (2004).
